The target in the experiment is T1, human PDE2A1 (Homo sapiens, UniProt O00408).
T1 construct: GST; purchased BPS Bioscience (San Diego, Calif.) 60020; host or cells: insect cells
The experiment can be described thus: IMAP FP PDE selectivity panel, human PDE2A1. The class given is biochemical. To be noted: Lab B; read-out: Human PDE2 Ki (nM) Lab B. The method in brief:
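IMAP FP read-out, run at room temperature in parallel with PDE1–11: enzyme at 20% substrate conversion, 50 nM FAM-cAMP containing 1000 nM cGMP, Tris pH 7.2/MgCl2/DTT buffer. Compounds as ten 3-fold dilutions. Reaction 60 min, stopped with binding reagent for 1 h before polarization measurement.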

T1 sequence (O00408 1-920 isoform O00408-2): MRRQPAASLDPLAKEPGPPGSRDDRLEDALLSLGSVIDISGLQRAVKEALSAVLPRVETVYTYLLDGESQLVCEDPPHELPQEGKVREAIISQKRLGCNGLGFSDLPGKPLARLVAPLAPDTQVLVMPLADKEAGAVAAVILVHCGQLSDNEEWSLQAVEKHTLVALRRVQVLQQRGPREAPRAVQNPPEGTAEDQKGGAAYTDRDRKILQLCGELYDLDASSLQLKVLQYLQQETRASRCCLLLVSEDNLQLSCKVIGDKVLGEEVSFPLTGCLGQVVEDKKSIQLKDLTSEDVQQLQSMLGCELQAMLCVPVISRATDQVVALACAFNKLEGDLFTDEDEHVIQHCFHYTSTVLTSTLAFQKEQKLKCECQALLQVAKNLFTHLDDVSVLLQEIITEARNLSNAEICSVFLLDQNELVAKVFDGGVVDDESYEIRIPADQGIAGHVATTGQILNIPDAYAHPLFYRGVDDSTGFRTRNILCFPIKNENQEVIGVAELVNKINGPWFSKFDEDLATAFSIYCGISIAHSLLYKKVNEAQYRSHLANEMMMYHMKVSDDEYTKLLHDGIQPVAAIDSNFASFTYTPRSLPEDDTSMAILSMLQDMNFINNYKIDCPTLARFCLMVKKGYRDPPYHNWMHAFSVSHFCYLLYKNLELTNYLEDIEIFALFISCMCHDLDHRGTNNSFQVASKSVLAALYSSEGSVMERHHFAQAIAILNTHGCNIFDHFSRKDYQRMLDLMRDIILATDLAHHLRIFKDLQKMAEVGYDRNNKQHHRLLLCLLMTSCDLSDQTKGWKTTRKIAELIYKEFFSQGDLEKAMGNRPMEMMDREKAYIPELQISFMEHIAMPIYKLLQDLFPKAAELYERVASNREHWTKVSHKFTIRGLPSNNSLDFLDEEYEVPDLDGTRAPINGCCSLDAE

For orientation: Ki means a dissociation constant, usually derived from enzyme kinetics or from competition with a known ligand. With `Cc1cc(NC(C)(C)c2ccc(SC(F)(F)F)cc2)n2ncnc2n1` [Example 55, 5-Methyl-N-(1-methyl-1-{4-[(trifluoromethyl)sulfanyl]phenyl}ethyl)[1,2,4]triazolo[1,5-a] pyrimidin-7-amine], the inhibitory constant (Ki) worked out at 211 nM.

Take `Cc1cc(NC2(c3ccc(C(F)(F)F)c(F)c3)CC2)n2nc(N(C)C)nc2n1` [Example 256, N^7-{1-[3-Fluoro-4-(trifluoromethyl)phenyl]cyclopropyl}-N^2,N^2,5-trimethyl[1,2,4]triazolo[1,5-a]pyrimidine-2,7-diamine]: the Ki is 608 nM.

For `Cc1cc(N[C@H](C)c2ccc(C(C)C)cc2)n2ncnc2n1` [Example 13, 5-Methyl-N-{(1R)-1-[4-(1-methylethyl)phenyl]ethyl}[1,2,4] triazolo[1,5-a]pyrimidin-7-amine], the Ki was 122 nM.

Turning to `CC(C)(O)[C@@H](Nc1cc(C(F)(F)F)cc2ncnn12)c1ccc(C(F)(F)F)cc1` [Example 277, (1S)-2-Methyl-1-[4-(trifluoromethyl)phenyl]-1-{[7-(trifluoromethyl)[1,2,4]triazolo [1,5-a]pyridin-5-yl]amino} propan-2-ol], the Ki was 87 nM.

Take `CCCc1nc2nc(C)cc(NC3(c4ccc(C(F)(F)F)c(F)c4)CC3)n2n1` [Example 194, N-(1-(3-Fluoro-4-(trifluoromethyl)phenyl)cyclopropyl)-5-methyl-2-propyl-[1,2,4]triazolo [1,5-a]pyrimidin-7-amine]: the Ki turned out to be 113 nM.

Regarding `CC(C)(O)C(Nc1cc(C(F)(F)F)nc2ncnn12)c1ccc(OC(F)(F)F)cc1F` (single isomer, unassigned) [Example 171, (1S or R)-1-[2-Fluoro-4-(trifluoromethoxy)phenyl]-2-methyl-1-{[5-(trifluoromethyl) [1,2,4]triazolo [1,5-a]pyrimidin-7-yl]amino} propan-2-ol], the Ki is roughly 1560 nM.

Regarding `CC(C)(O)C(Nc1cc(C(F)(F)F)nc2ncnn12)c1ccc(C(F)(F)F)cc1Cl` (single isomer, unassigned) [Example 160, (1R or S)-1-[2-chloro-4-(trifluoromethyl)phenyl]-2-methyl-1-{[5-(trifluoromethyl)[1,2,4]triazolo[1,5-a]pyrimidin-7-yl]amino}propan-2-ol], the inhibition constant (Ki) came out at 81 nM.

Regarding `Cc1cc(NC(c2ccc(OC(F)(F)F)cc2C)C(C)(C)O)n2ncnc2n1` (single isomer, unassigned) [Example 129, (1R or S)-2-Methyl-1-[(5-methyl[1,2,4]triazolo[1,5-a]pyrimidin-7-yl)amino]-1-[2-methyl-4-(trifluoromethoxy)phenyl]propan-2-ol], the Ki turned out to be 21 nM.

As to `Cc1cc(N[C@H](c2ccc(OC(F)(F)F)c(Cl)c2)C(C)(C)O)n2ncnc2n1` [Example 103, (1R)-1-[3-Chloro-4-(trifluoromethoxy)phenyl]-2-methyl-1-[(5-methyl[1,2,4]triazolo[1,5-a]pyrimidin-7-yl)amino]propan-2-ol], the inhibitory constant (Ki) was found to be 34 nM.

Turning to `Cc1cc(NC2(c3ccc(C(F)(F)F)c(F)c3)CC2)n2nc(C)nc2n1` [Example 192, N-(1-(3-Fluoro-4-(trifluoromethyl)phenyl)cyclopropyl)-2,5-dimethyl-[1,2,4]triazolo [1,5-a]pyrimidin-7-amine], the inhibition constant (Ki) stood at 91 nM.

Consider `CC(C)(O)C(Nc1cc(C(F)F)nc2ncnn12)c1ccc(OC(F)F)c(F)c1` (single isomer, unassigned) [Example 190, (1R or S)-[4-(Difluoromethoxy)-3-fluorophenyl]-1-{[5-(difluoromethyl) [1,2,4]triazolo [1,5-a]pyrimidin-7-yl]amino}-2-methylpropan-2-ol], for which the inhibition constant (Ki) is greater than 2960 nM.

Take `Cc1cc(N[C@@H](c2ccc(OC(F)F)cc2)C(C)C)n2ncnc2n1` [Example 23, N-{(1R)-1-[4-(Difluoromethoxy)phenyl]-2-methylpropyl}-5-methyl [1,2,4]triazolo[1,5-a]pyrimidin-7-amine]: the inhibition constant (Ki) came to 45 nM.

As for `Cc1cc(NC(c2ccc(C(C)(C)C)cc2)C(C)(C)O)n2ncnc2n1` (single isomer, unassigned) [Example 107], the Ki was 13 nM.

In the case of `CC(C)(O)C(Nc1cc(C(F)(F)F)nc2ncnn12)c1ccc(C(F)(F)F)c(F)c1` (single isomer, unassigned) [Example 214, (S)- or (R)-1-(3-Fluoro-4-(trifluoromethyl)phenyl)-2-methyl-1-(5-(trifluoromethyl)-[1,2,4]triazolo [1,5-a]pyrimidin-7-ylamino)propan-2-ol], the inhibition constant (Ki) was found to be 25 nM.

For `Cc1cc(N[C@@H](c2ccc(C(F)(F)F)c(F)c2)C(C)(C)C)n2nc(CO)nc2n1` [Example 206, (R)-(7-(1-(3-Fluoro-4-(trifluoromethyl)phenyl)-2,2-dimethylpropylamino)-5-methyl-[1,2,4]triazolo [1,5-a]pyrimidin-2-yl)methanol], the Ki came out at 184 nM.

Regarding `Cc1cc(NC(c2ccc(CC(F)(F)F)cc2)C(C)(C)O)n2ncnc2n1` (single isomer, unassigned) [Example 118, (1S or R)-2-Methyl-1-[(5-methyl [1,2,4]triazolo [1,5-a]pyrimidin-7-yl)amino]-1-[4-(2,2,2-trifluoroethyl)phenyl]propan-2-ol], the Ki was greater than 2960 nM.

Regarding `Cc1cc(N[C@@H](c2ccc(C(F)(F)F)c(F)c2)C(C)(C)C)n2nc(C)nc2n1` [Example 202, (R)-N-(1-(3-Fluoro-4-(trifluoromethyl)phenyl)-2,2-dimethylpropyl)-2,5-dimethyl-[1,2,4]triazolo [1,5-a]pyrimidin-7-amine], the inhibition constant Ki stood at 56 nM.

With `Cc1cc(NC(c2ccc(C3(C)CC3)cc2)C(C)(C)O)n2ncnc2n1` (single isomer, unassigned) [Example 120, (1S or R)-2-Methyl-1-[4-(1-methyl-cyclopropyl)phenyl]-1-[(5-methyl[1,2,4]triazolo[1,5-a]pyrimidin-7-yl)amino]propan-2-ol], the Ki is greater than 2960 nM.

With `COCc1cc(NC2(c3ccc(C(F)(F)F)c(F)c3)CC2)n2ncnc2n1` [Example 75, N-{1-[3-Fluoro-4-(trifluoromethyl)phenyl]cyclopropyl}-5-(methoxymethyl) [1,2,4]triazolo[1,5-a]pyrimidin-7-amine], the inhibitory constant (Ki) was 201 nM.

As for `Cc1cc(N[C@@H](c2ccc(C(F)(F)F)c(F)c2)C(C)(C)O)nc2ncnn12` (single isomer, unassigned) [Example 292], the inhibition constant (Ki) was greater than 2960 nM.

“(R or S)-2,2-Dimethyl-3-(3-methyl-4-(trifluoromethoxy)phenyl)-3-(5-methyl-[1,2,4]triazolo[1,5-a]pyrimidin-7-ylamino)propan-1-ol [Example 231]”: the Ki was 7.3 nM.

Take `Cc1cc(NC2(c3ccc(C(F)(F)F)cc3)COC2)n2ncnc2n1` [Example 199, 5-Methyl-N-(3-(4-(trifluoromethyl)phenyl)oxetan-3-yl)-[1,2,4]triazolo [1,5-a]pyrimidin-7-amine]: the inhibition constant Ki turned out to be 167 nM.

Consider `Cc1cc(NC(C)(C)c2ccc(C(F)(F)F)c(F)c2)n2ncnc2n1` [Example 46, N-{1-[3-Fluoro-4-(trifluoromethyl)phenyl]-1-methylethyl}-5-methyl [1,2,4]triazolo[1,5-a]pyrimidin-7-amine], for which the Ki worked out at 48 nM.

As to `Cc1cc(N[C@](C)(c2ccc(OC(F)(F)F)cc2)C(C)(C)O)n2ncnc2n1` [Example 154, (3R)-2-Methyl-3-[(5-methyl[1,2,4]triazolo[1,5-a]pyrimidin-7-yl)amino]-3-[4-(trifluoromethoxy)phenyl]butan-2-ol], the Ki was greater than 2960 nM.

In the case of `Fc1cc(C2(Nc3cc(Cl)nc4ncnn34)CC2)ccc1C(F)(F)F` [Example 208, 5-Chloro-N-(1-(3-fluoro-4-(trifluoromethyl)phenyl)cyclopropyl)-[1,2,4]triazolo [1,5-a]pyrimidin-7-amine], the Ki was found to be 2.7 nM.

Regarding `Cc1cc(NC(c2ccc3c(c2)OC(F)(F)O3)C(C)(C)O)n2ncnc2n1` (single isomer, unassigned) [Example 112, (1S or R)-1-(2,2-Difluoro-1,3-benzodioxol-5-yl)-2-methyl-1-[(5-methyl[1,2,4]triazolo[1,5-a]pyrimidin-7-yl)amino]propan-2-ol], the Ki is greater than 2960 nM.

Consider `Cc1cc(N[C@H](c2ccc(OC(F)(F)F)cc2Cl)C(C)(C)O)n2ncnc2n1` [Example 101, (1R)-1-[2-Chloro-4-(trifluoromethoxy)phenyl]-2-methyl-1-[(5-methyl[1,2,4]triazolo[1,5-a]pyrimidin-7-yl)amino]propan-2-ol], for which the Ki is 27 nM.

As for `CC(C)(O)C(Nc1cc(C2CC2)nc2ncnn12)c1ccc(OC(F)(F)F)c(F)c1` (single isomer, unassigned) [Example 140, (1S or R)-1-[(5- Cyclopropyl [1,2,4]triazolo [1,5-a]pyrimidin-7-yl)amino]-1-[3-fluoro-4-(trifluoro-methoxy)phenyl]-2-methylpropan-2-ol], the Ki was greater than 2960 nM.

In the case of `CC(C)c1cc(NC(c2ccc(OC(F)(F)F)c(F)c2)C(C)(C)O)n2ncnc2n1` (single isomer, unassigned) [Example 139, (1R or S)-1-[3-Fluoro-4-(trifluoro-methoxy)phenyl]-2-methyl-1-{[5-(1-methylethyl) [1,2,4]triazolo [1,5-a]pyrimidin-7-yl]amino} propan-2-ol], the Ki is greater than 2960 nM.

Turning to `Cc1cc(NC2(c3ccc(SC(F)(F)F)cc3)CC2)n2ncnc2n1` [Example 59, 5-Methyl-N-(1-{4-[(trifluoromethyl)sulfanyl]phenyl}cyclopropyl)[1,2,4]triazolo [1,5-a]pyrimidin-7-amine], the inhibition constant (Ki) came out at 72 nM.

Take `CC(C)(C)c1cc(NC(c2ccc(S(F)(F)(F)(F)F)cc2)C(C)(C)O)n2ncnc2n1` (single isomer, unassigned) [Example 151, (1R or S)-1-[(5-tert-Butyl[1,2,4]triazolol[1,5-a]pyrimidin-7-yl)amino]-2-methyl-1-[4-(pentafluoro-λ^6-sulfanyl)phenyl] propan-2-ol]: the inhibition constant Ki is greater than 2960 nM.
